According to PubChem BioAssay AID1918948 (Molecular Pharmacology Branch, DTP, NCI, 2023):

Test system: K-562 leukemia growth, % test/control
Assay: Anticancer human tumor K-562 cell line growth inhibition;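 further: spheroids exposed to compounds for 7 days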;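 on viability, T/C: 100% = DMSO vehicle wells and lower values mean fewer viable cells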
Conditions: spheroids with HUVEC and MSC; for IC50: curve of first compound; for viability, T/C: stronger effect = lower value
From the text: Multicellular complex tumor spheroid response to LSD1 Inhibitor Iadademstat in combination with a variety of drugs and investigational agents in selected tumor cell lines
The current study was undertaken to assess response to LSD1 inhibitors in combination with standard-of-care drugs and investigational agents in solid tumor complex spheroid models as well as in the K-562 leukemia. Complex spheroids include a stromal component modeled by human endothelial cells (HUVEC) and fibroblasts modeled by human mesenchymal stem cells (MSCs). The concentration ranges selected for each drug and investigational agent were based upon clinically achievable concentrations if the clinical Cmax of the agent was known.
Compounds. The drugs and investigational agents used in this study are listed on Table 1. All of the agents used, including staurosporine (NSC755774) and gemcitabine (NSC613327), were obtained from the Developmental Therapeutics Program, NCI. FDA-approved anticancer drugs are available from the NCI at http://dtp.nci.nih.gov/branches/dscb/oncology_drugset_explanation.html. Drugs and investigational agents were >95% pure by proton nuclear magnetic resonance (NMR) and liquid chromatography/mass spectrometry (LC/MS). Stock solutions were prepared at 400x in DMSO, stored at -70 degrees C, and diluted in fresh medium prior to their use. The final concentration of DMSO in cell culture wells never exceeded 0.25% (v/v). The FDA-approved anticancer drug set is available from the Developmental Therapeutics Program at https://dtp.cancer.gov/organization/dscb/obtaining/available_plates.htm. All drugs and investigational agents were tested over a range starting from a high concentration at or near the clinical Cmax and decreasing in half-log increments. If the clinical Cmax for an agent had not been determined, the highest concentration tested was 10 microM.
Cell Lines. The patient-derived cancer cell (PDC) lines: 292921-168-R-J2-PDC, K24384-001-R-PDC, and 521955-158-R2-J5-PDC pancreatic carcinomas, 556581-035-R-J1 ovarian carcinoma, 324938-238-R-J1-PDC, 855422-203-R-J1-PDC and 883617-216-R-J1-PDC urothelial bladder carcinomas, 743489-274-T-PDC renal cell carcinoma, 138582-R-J1 Merkel cell tumor, K60290-347-R-J1 and K57222-313-R-J1-PDC glioblastomas, 653999-131-R-J2-PDC, LG0703-F948-PDC, and 349418-098-R-PDC non-small cell lung carcinomas, 885512-296-R-J2-PDC, 171881-019-R-J1-PDC breast carcinomas and 186277-243-T-J2-PDC and 233499-124-R-J2-PDC colon carcinomas were obtained from the NCI Patient-Derived Models Repository (PDMR, https://pdmr.cancer.gov). The established cell lines NCI/ADR-RES (RRID:CVCL_14520 and OVCAR-5 (RRID:CVCL_1628) ovarian carcinomas, 786-O (RRID:CVCL_1051) and A498 (RRID:CVCL_A498) renal cell carcinoma, NCI-H211 (ATCC, cat. CRL-5824; RRID:CVCL_1529), NCI-H196 (ATCC, cat. CRL-5823, RRID:CVCL_1509), SW 1271 (ATCC, cat. CRL-2177, RRID:CVCL_1716) and NCI-H1876 (ATCC, cat. CRL-5902, RRID:CVCL_1503) small cell lung carcinomas, MDA-MB-231 (RRID:CVCL_0062) and MDA-MB-468 (RRID:CVCL_0419)breast carcinomas (10-12). Pooled donor human umbilical vein endothelial cells (HUVEC, Lonza, cat. CC-2519) and human mesenchymal stem cells (hMSC, Lonza, cat. PT-2501) were purchased from Lonza (Walkersville, MD).
Cell Culture. All cells were maintained in an incubator at 37 degrees C and 5% CO2 with 95% humidity. The PDC lines were cultured according to standard operating procedures established by the NCI PDMR (https://pdmr.cancer.gov). Briefly all PDCs were thawed and cultured in Matrigel-coated flasks prepared with a working solution of 1X Ham's F-12 nutrient mix, without supplementation (Invitrogen, Waltham, MA, cat. 11765054), 100 U/mL penicillin-streptomycin (Invitrogen, cat. 15140122), and 2.5% Matrigel (Corning Inc., Corning, NY, cat. 354248) for the first three passages. […]

[1] = second compound 0.1 µM, first compound 0.00949 µM
[2] = second compound 0.1 µM, first compound 0.03 µM
[3] = second compound 0.1 µM, first compound 0.0949 µM
[4] = second compound 0.1 µM, first compound 0.3 µM
[5] = second compound 0.316 µM, first compound 0.00949 µM
[6] = second compound 0.316 µM, first compound 0.03 µM
[7] = second compound 0.316 µM, first compound 0.0949 µM
[8] = second compound 0.316 µM, first compound 0.3 µM
[9] = second compound 1 µM, first compound 0.00949 µM
[10] = second compound 1 µM, first compound 0.03 µM
[11] = second compound 1 µM, first compound 0.0949 µM
[12] = second compound 1 µM, first compound 0.3 µM
[13] = second compound 3.16 µM, first compound 0.00949 µM
[14] = second compound 3.16 µM, first compound 0.03 µM
[15] = second compound 3.16 µM, first compound 0.0949 µM
[16] = second compound 3.16 µM, first compound 0.3 µM
[17] = second compound 10 µM, first compound 0.00949 µM
[18] = second compound 10 µM, first compound 0.03 µM
[19] = second compound 10 µM, first compound 0.0949 µM
[20] = second compound 10 µM, first compound 0.3 µM

Structure (SMILES)	IC50 (second compound 0.1 µM) [µM]	IC50 (second compound 0.316 µM) [µM]	IC50 (second compound 1 µM) [µM]	IC50 (second compound 3.16 µM) [µM]	IC50 (second compound 10 µM) [µM]	viability, T/C [1] [%]	viability, T/C [2] [%]	viability, T/C [3] [%]	viability, T/C [4] [%]	viability, T/C [5] [%]	viability, T/C [6] [%]	viability, T/C [7] [%]	viability, T/C [8] [%]	viability, T/C [9] [%]	viability, T/C [10] [%]	viability, T/C [11] [%]	viability, T/C [12] [%]	viability, T/C [13] [%]	viability, T/C [14] [%]	viability, T/C [15] [%]	other results
COc1cc(C2c3cc4c(cc3C(OC3OC5COC(C)OC5C(O)C3O)C3COC(=O)C23)OCO4)cc(OC)c1O (stereo not given) + NC1CCC(NC2CC2c2ccccc2)CC1	0.0242	0.0259	0.027	0.0275	0.0268	86.3	34.6	26.9	35.2	87.3	36	28.2	36.1	86.8	37.7	28.6	35.5	87.5	37	30.1	viability, T/C (second compound 0.1 µM, first compound 0.949 µM): 13.8%; viability, T/C (second compound 0.1 µM, first compound 3 µM): 3.12%; viability, T/C (second compound 0.316 µM, first compound 0.949 µM): 14%; viability, T/C (second compound 0.316 µM, first compound 3 µM): 3.11%; viability, T/C (second compound 1 µM, first compound 0.949 µM): 12.9%; viability, T/C (second compound 1 µM, first compound 3 µM): 3.58%; viability, T/C [16]: 33.8%; viability, T/C (second compound 3.16 µM, first compound 0.949 µM): 12.7%; viability, T/C (second compound 3.16 µM, first compound 3 µM): 3.14%; viability, T/C [17]: 83.2%; viability, T/C [18]: 38.2%; viability, T/C [19]: 30.4%; viability, T/C [20]: 26.7%; viability, T/C (second compound 10 µM, first compound 0.949 µM): 9.22%; viability, T/C (second compound 10 µM, first compound 3 µM): 2.85%
Nc1ncn(C2CC(O)C(CO)S2)c(=O)n1 (stereo not given) + NC1CC1c1ccc(-c2cccc(O)c2)cc1	0.0911	0.0844	0.079	0.0768	0.0558	107	93.2	48.4	17.1	103	90.3	45.5	16.3	104	88	42.9	15.6	102	85.6	42.1	viability, T/C (second compound 0.1 µM, first compound 0.000949 µM): 110%; viability, T/C (second compound 0.1 µM, first compound 0.003 µM): 108%; viability, T/C (second compound 0.316 µM, first compound 0.000949 µM): 103%; viability, T/C (second compound 0.316 µM, first compound 0.003 µM): 104%; viability, T/C (second compound 1 µM, first compound 0.000949 µM): 102%; viability, T/C (second compound 1 µM, first compound 0.003 µM): 103%; viability, T/C (second compound 3.16 µM, first compound 0.000949 µM): 98.5%; viability, T/C (second compound 3.16 µM, first compound 0.003 µM): 105%; viability, T/C [16]: 16.3%; viability, T/C (second compound 10 µM, first compound 0.000949 µM): 98.8%; viability, T/C (second compound 10 µM, first compound 0.003 µM): 101%; viability, T/C [17]: 98%; viability, T/C [18]: 72.6%; viability, T/C [19]: 30.5%; viability, T/C [20]: 12.3%
